Laboratory results reported in publication PMC12733166, “Enhancing Cytosolic Internalization of [^177Lu]Lu–iPSMA in Prostate Cancer Cells: The Effect of Conjugating a GRP78 Inhibitor to the Radiotherapeutic Molecule” (International Journal of Molecular Sciences, 2025).
Starred links: 1 amine or outer side, 2 acyl side, 3 side chain; linkers in the order of their positions; H or OH if unused. Non-standard residues stand in square brackets, D forms with d. Residues, ends and D or L forms follow the SMILES beside them. *: point of attachment. X2 = O=C(O)CC[C@@H](NC(=O)N[C@H](CCCCNC(=O)[C@H](Cc1ccc2ccccc2c1)NC(=O)CCCN1C(=O)C[C@@H](*)C1=O)C(=O)O)C(=O)O; DOTA = O=C(O)CN1CCN(CC(=O)O)CCN(CC(=O)*)CCN(CC(=O)O)CC1; X1 = O=C(c1ccc(NN[*:1])nc1)[*:2]

Experiments:
LNCaP cells = assay: Cytotoxicity / cell viability by flow cytometry (Muse Count & Viability kit); assay type: cell-based, human; conditions: LNCaP 5 × 10^4 cells/200 µL, 1.4 MBq, 5 h (15 Gy/h whole-cell dose); triplicate (n = 3) from two independent experiments, mean ± SD
Method: The effects of radioligands on LNCaP cell viability were evaluated using advanced flow cytometry techniques. The radioligands tested were [^177Lu]Lu–iPSMA–iGRP78, [^177Lu]Lu–iPSMA, and [^177Lu]Lu–iGRP78. This evaluation was conducted to assess their impact on the survival of prostate cancer cells. Cell viability was measured using the Count & Viability kit (Muse®). Prior to analysis, the Muse® cell analyzer (Merck Millipore, Burlington, MA, USA) was calibrated with the verification kit to ensure its accuracy. First, a fresh, untreated LNCaP cell sample was analyzed to establish reference parameters, including cell size, granularity, and natural cell viability. To accurately distinguish between live and dead cells, an aliquot of the same cell population was treated with 0.05% Triton X-100. This treatment defined the dead cell detection window in the analyzer. Next, a specific detection window was established for LNCaP cells to differentiate between viable and non-viable cells during analysis accurately. For each experimental group, a cell suspension containing 5 × 10^4 cells in 200 µL was prepared. The cells were then treated as follows: 1.4 MBq of (a) [^177Lu]Lu–iPSMA–iGRP78, (b) [^177Lu]Lu–iPSMA, (c) [^177Lu]Lu–iGRP78, and (d) untreated. After five hours of treatment (15 Gy/h at whole-cell dose), the cells were mixed with 450 µL of viability reagent and incubated for 5 min at room temperature in the dark. All measurements were performed in triplicate (n = 3) from two independent experiments to ensure reliability and reproducibility. To determine the radiation absorbed dose rate to the whole cell (15 Gy/h), the total number of nuclear transformations (N) was calculated. This value was normalized to the administered activity unit (MBq·s/MBq) by integrating the activity (A(t)) from time zero to five hours. Next, the absorbed dose was calculated by multiplying N by the dose factor (DF: from cell to cell) (Gy/Bq·s), as determined by MIRDcell software, considering the crossfire absorbed dose (version 2.1).

[1] = system: PC3 cells (PSMA−, CS-GRP78−); assay: Cytosolic and nuclear internalization (subcellular fractionation) in PC3 cells; assay type: cell-based, human; conditions: PC3 cells 1 × 10^5/200 µL, 37 kBq/4 nmol, 1 h, 37 °C
Method: (§1) PC-3 (CRL-1435; ATCC, Manassas, VA, USA) and LNCaP human prostate cancer cells (CRL-1740; ATCC, USA) were cultured in Roswell Park Memorial Institute medium (RPMI; Sigma-Aldrich, USA) at 37 °C, 85% humidity, 5% CO2, and 10% fetal bovine serum.
(§2) Assays were performed to evaluate the cellular uptake and subcellular distribution of [^177Lu]Lu–iPSMA–iGRP78 and the control monomers [^177Lu]Lu–iPSMA and [^177Lu]Lu–iGRP78 in two prostate cancer cell lines: LNCaP (PSMA+, SC-GRP78+) and PC3 (PSMA^−, CS-GRP78^−). Cells (1 × 10^5/200 µL) were incubated with the radiopharmaceutical (37 kBq/4 nmol) for 1 h at 37 °C to assess the distribution between the cytoplasm and nucleus.
Following incubation, tubes were measured with a NaI(Tl) crystal scintillation gamma-counter (NML Inc., TX, USA) to determine 100% of the initial activity. The tubes were centrifuged at 250× g for 5 min, and the supernatant was withdrawn. The activity in the pellet was measured to determine the percentage of cellular uptake (surface uptake) relative to the initial activity. […]
(§3) After centrifugation, the cell pellet, which corresponds to the internalized activity, was quantified using a gamma counter. The radioactivity measured in the pellet was defined as 100% of the internalized activity.
The pellet was resuspended in cytoplasmic lysis buffer with dithiothreitol and a protease inhibitor cocktail to maintain protein stability during lysis. […] The supernatant, representing the cytosolic fraction, was collected and analyzed for radioactivity via gamma counting. […]
(§4) Radioactivity measurements were conducted on both the nuclear extract and the membrane pellet fractions using a gamma counter. The percentage of activity within each subcellular compartment was calculated for each time point, allowing for evaluation of the distribution of [^177Lu]Lu–iPSMA–iGRP78 and control monomers [^177Lu]Lu–iPSMA and [^177Lu]Lu–iGRP78 between the cytoplasmic and nuclear compartments of prostate cancer cells over time.

[2] = system: LNCaP cells (PSMA+, CS-GRP78+); assay: Cytosolic and nuclear internalization (subcellular fractionation) in LNCaP cells; assay type: cell-based, human; conditions: LNCaP cells 1 × 10^5/200 µL, 37 kBq/4 nmol, 1 h, 37 °C; for Cytosolic internalization: gamma counting of cytosolic fraction; for Nuclear internalization: gamma counting of nuclear extract
Method: as §1, §2
Following incubation, tubes were measured with a NaI(Tl) crystal scintillation gamma-counter (NML Inc., TX, USA) to determine 100% of the initial activity. The tubes were centrifuged at 250× g for 5 min, and the supernatant was withdrawn. The activity in the pellet was measured to determine the percentage of cellular uptake (surface uptake) relative to the initial activity. Next, the nuclei and cytoplasm of the cells were separated using a Nuclear Extraction Kit (Chemicon International, Inc., Temecula, CA, USA). To prepare for fractionation, the cells were first washed with 1 mL of 0.2 M acetic acid/0.5 M NaCl. The tubes were centrifuged at 250× g for 5 min, washed with phosphate-buffered saline (PBS), and then centrifuged again to ensure thorough removal of extracellular components.
as §3
The pellet was resuspended in cytoplasmic lysis buffer with dithiothreitol and a protease inhibitor cocktail to maintain protein stability during lysis. Mechanical disruption was performed by passing the suspension through a 27-gauge needle multiple times using a syringe to ensure complete cell breakdown. The resulting lysate underwent centrifugation at 8000× g for 20 min at 4 °C. The supernatant, representing the cytosolic fraction, was collected and analyzed for radioactivity via gamma counting.
The remaining pellet, containing the nuclear fraction, was resuspended in nuclear extraction buffer supplemented with dithiothreitol and a protease inhibitor cocktail. Nuclear disruption was carried out before centrifuging at 16,000× g for 5 min at 4 °C. The supernatant contained the nuclear extract, while the membrane components remained in the pellet.
as §4

[3] = Stability in PBS (radiochemical purity by radio-HPLC); assay type: physicochemical; conditions: 10 µL (18.5 MBq) in 1 mL PBS, 3 h, 37 °C; reverse-phase radio-HPLC; n = 3
Method: The quality control assessed bacterial endotoxins, sterility, pH, and appearance, following the general methods of the Mexican Pharmacopeia. Radiochemical purity was evaluated by reversed-phase radio-high-performance liquid chromatography (radioHPLC) ( LC-40DxR, Shimadzu, Kyoto, Japan). A shim-pack GIST C18 column (Shimadzu: 4.6 mm × 25 cm, 5 μm particle size) with a linear gradient from 100% to 10% of mobile phase A (0.1% TFA aqueous solution) and from 0% to 90% of phase B (0.1% TFA in acetonitrile) in 20 min at 1 mL/min. The retention time of [^177Lu]Lu–iPSMA–iGRP78 was 17.4 ± 0.3 min, and 3.7 ± 0.2 min for ^177LuCl3. Radiochemical purities of [^177Lu]Lu–iPSMA (tR = 15.2 ± 0.2 min) and [^177Lu]Lu–iGRP78 (tR = 19.2 ± 0.4 min) were also verified to be higher than 95%.
To assess the in vitro stability of [^177Lu]Lu-iPSMA-iGRP78, 10 µL (18.5 MBq) of the radiopharmaceutical was diluted in either 1 mL of PBS or 1 mL of human serum (NIST-909c certified human serum sample; Sigma-Aldrich, St. Louis, MO, USA) (n = 3). The mixtures were incubated for 3 h at 37 °C. Then, 0.5 mL of acetonitrile was added to the human serum samples to precipitate the proteins, and the mixtures were centrifuged at 500× g for 10 min. The radiochemical purity of the human serum supernatants and PBS solution samples was analyzed by reverse-phase radio-HPLC, as described above.

[4] = system: LNCaP cells (PSMA+, CS-GRP78+); assay: Saturation binding assay on LNCaP cells; parameters: species or system human; conditions: 1-100 nM radioligand, 4 °C, 2 h, non-specific binding with 1 μM PMPA, n = 3 from two independent experiments; for Kd: GraphPad Prism, read-out: Dissociation constant (Kd)
Method: as §1
The affinity comparison between the [^177Lu]Lu–iPSMA–iGRP78 dimer and [^177Lu]Lu–iPSMA monomer was performed in LNCaP cells. For the saturation binding analysis, cells were seeded on 96-well plate cultures ([…]) and incubated at 37 °C under a CO2 atmosphere for 24 h, then the plates were placed on ice for 30 min. Next, they were incubated at 4 °C for 2 h with increasing concentrations (from 1nM to 100 nM) of the monomer [^177Lu]^natLu-iPSMA or the dimer [^177Lu]^natLu-iPSMA-iGRP78. Finally, cells were washed with PBS followed by the addition of 1M NaOH for cell lysis. This solution was measured for radioactivity using a NaI(Tl) gamma counter (NML Inc., Littleton, CO, USA). Non-specific binding of [^177Lu]Lu–iPSMA–iGRP78 and [^177Lu]Lu–iPSMA was determined under the same experimental conditions described above but in the presence of PMPA (2-(phosphonomethyl) pentanedioic acid) at a final concentration of 1 μM. The dissociation constant (Kd) and maximum number of binding sites (Bmax) were calculated by a lineal regression analysis with data (n = 3) from two independent experiments using the GraphPad Prism software (v. 10.6.1).

CC[C@@H](C)[C@@H](NC(=O)[C@@H](Cc1c[nH]c2ccccc12)NC(=O)[C@H]1CCCN1C(=O)[C@@H](Cc1ccccc1)NC(=O)[C@H](NC(=O)[C@@H](Cc1c[nH]c2ccccc12)NC(=O)[C@@H](CS)NC(=O)c1ccc(NNC(=O)CN2CCN(CC(=O)O)CCN(CC(=O)O)CCN(CC(=O)O)CC2)nc1)[C@H](C)CC)C(=O)N[C@H](CCC(N)=O)C(=O)N[C@H](CC(C)C)C(=O)O [[^177Lu]Lu–iGRP78, metal not drawn] ({DOTA}-[X1][dC][dW][dI][dF][dP][dW][dI][dQ][dL]-OH)
Dead cells (LNCaP cells): 68.93 ± 5.05%
Uptake in cellular cytosol and nucleus [1]: low uptake
Cytosolic internalization [2]: highest internalization values
Nuclear internalization [2]: highest internalization values
Radiochemical purity, unchanged after incubation in PBS [3]: exceeding 97%

O=C(O)CC[C@@H](NC(=O)N[C@H](CCCCNC(=O)[C@H](Cc1ccc2ccccc2c1)NC(=O)c1ccc(NNC(=O)CN2CCN(CC(=O)O)CCN(CC(=O)O)CCN(CC(=O)O)CC2)nc1)C(=O)O)C(=O)O [[^177Lu]Lu–iPSMA, metal not drawn]
Dead cells (LNCaP cells): 38.63 ± 6.13%
Uptake in cellular cytosol and nucleus [1]: low uptake
Cytosolic internalization [2]: 6.45 ± 0.60%
Nuclear internalization [2]: no uptake in the cell nucleus
Maximum number of binding sites (Bmax) [4]: 0.032 nM
Kd [4]: 2.25 nM
Radiochemical purity, unchanged after incubation in PBS [3]: exceeding 97%

CC[C@@H](C)[C@@H](NC(=O)[C@@H](Cc1c[nH]c2ccccc12)NC(=O)[C@H]1CCCN1C(=O)[C@@H](Cc1ccccc1)NC(=O)[C@H](NC(=O)[C@@H](Cc1c[nH]c2ccccc12)NC(=O)[C@@H](CS[C@@H]1CC(=O)N(CCCC(=O)N[C@@H](Cc2ccc3ccccc3c2)C(=O)NCCCC[C@@H](NC(=O)N[C@H](CCC(=O)O)C(=O)O)C(=O)O)C1=O)NC(=O)c1ccc(NNC(=O)CN2CCN(CC(=O)O)CCN(CC(=O)O)CCN(CC(=O)O)CC2)nc1)[C@H](C)CC)C(=O)N[C@H](CCC(N)=O)C(=O)N[C@H](CC(C)C)C(=O)O [[^177Lu]Lu–iPSMA–iGRP78, metal not drawn] ({DOTA}-[X1][dC](X2)[dW][dI][dF][dP][dW][dI][dQ][dL]-OH)
Dead cells (LNCaP cells): 69.93 ± 4.85%
Uptake in cellular cytosol and nucleus [1]: low uptake
Cytosolic internalization [2]: 10.44 ± 2.43%
Nuclear internalization [2]: 4.81 ± 0.94%
Maximum number of binding sites (Bmax) [4]: 0.048 nM
Kd [4]: 1.88 nM
Radiochemical purity, unchanged after incubation in PBS [3]: exceeding 97%
